Test results as given in paper PMC4521866 (PLoS ONE, 2015).

Experiment: Solubility and structural stability of peptides
Type: physicochemical
Conditions: effect of adding HR2 hydrophilic residues to the LK21 N-terminus; qualitative
With `CC[C@H](C)[C@H](NC(=O)[C@H](Cc1ccc(O)cc1)NC(=O)[C@H](Cc1c[nH]c2ccccc12)NC(=O)[C@H](CC(C)C)NC(=O)[C@H](Cc1c[nH]c2ccccc12)NC(=O)[C@H](CC(N)=O)NC(=O)[C@@H](NC(=O)[C@@H](NC(=O)[C@H](CC(N)=O)NC(=O)[C@H](Cc1ccccc1)NC(=O)[C@H](Cc1c[nH]c2ccccc12)NC(=O)[C@H](CC(N)=O)NC(=O)[C@H](Cc1c[nH]c2ccccc12)NC(=O)[C@H](CC(C)C)NC(=O)[C@H](CO)NC(=O)[C@H](C)NC(=O)[C@H](Cc1c[nH]c2ccccc12)NC(=O)[C@H](CCCCN)NC(=O)[C@H](CC(=O)O)NC(=O)[C@H](CC(C)C)NC(=O)[C@H](CCC(=O)O)NC(=O)[C@H](CC(C)C)NC(=O)[C@H](CC(C)C)NC(=O)[C@H](CCC(=O)O)NC(=O)[C@H](CCC(N)=O)NC(C)=O)[C@@H](C)CC)[C@@H](C)O)C(=O)N[C@@H](CCCCN)C(N)=O` [QK26] the “solubility and structural stability” value was “greatly enhanced”. In the case of “Ac-EESQNQQEKNEQELLELDKWASLWNWFNITNWLWYIK-NH2 [EK37]”, the “solubility and structural stability” value is reported as “greatly enhanced”. For `CC[C@H](C)[C@H](NC(=O)[C@H](Cc1ccc(O)cc1)NC(=O)[C@H](Cc1c[nH]c2ccccc12)NC(=O)[C@H](CC(C)C)NC(=O)[C@H](Cc1c[nH]c2ccccc12)NC(=O)[C@H](CC(N)=O)NC(=O)[C@@H](NC(=O)[C@@H](NC(=O)[C@H](CC(N)=O)NC(=O)[C@H](Cc1ccccc1)NC(=O)[C@H](Cc1c[nH]c2ccccc12)NC(=O)[C@H](CC(N)=O)NC(=O)[C@H](Cc1c[nH]c2ccccc12)NC(=O)[C@H](CC(C)C)NC(=O)[C@H](CO)NC(=O)[C@H](C)NC(=O)[C@H](Cc1c[nH]c2ccccc12)NC(=O)[C@H](CCCCN)NC(=O)[C@H](CC(=O)O)NC(=O)[C@H](CC(C)C)NC(=O)[C@H](CCC(=O)O)NC(=O)[C@H](CC(C)C)NC(=O)[C@H](CC(C)C)NC(=O)[C@H](CCC(=O)O)NC(=O)[C@H](CCC(N)=O)NC(=O)[C@H](CCC(=O)O)NC(=O)[C@H](CC(N)=O)NC(=O)[C@H](CCCCN)NC(=O)[C@H](CCC(=O)O)NC(C)=O)[C@@H](C)CC)[C@@H](C)O)C(=O)N[C@@H](CCCCN)C(N)=O` [EK30], the “solubility and structural stability” value was “greatly enhanced”.
